Laboratory results taken from ChEMBL document CHEMBL3098039, “Urea/oxalamide tethered β-lactam-7-chloroquinoline conjugates: synthesis and in vitro antimalarial evaluation” (Eur J Med Chem, 2014).

Experiments:
Plasmodium falciparum = experiment: Antiplasmodial activity against chloroquine-resistant ring stage Plasmodium falciparum W2 assessed as parasitemia after 48 hrs by flow cytometry; format: functional, organism-based; details: W2, 48 h
[1] = Cytotoxicity against human HeLa cells assessed as cell viability at 10 uM after 24 hrs by trypan blue assay relative to untreated control; format: cell-based; details: read-out: Activity
[2] = Cytotoxicity against human HeLa cells assessed as cell viability at 1 uM after 24 hrs by trypan blue assay relative to untreated control; format: cell-based; details: read-out: Activity

Row | SMILES | IC50 (Plasmodium falciparum) [µM] | viability at 24 h, 10 µM [1] [%] | viability at 24 h, 1 µM [2] [%]
1 | Cc1ccc(N2C(=O)[C@H](NC(=O)NCCCCNc3ccnc4cc(Cl)ccc34)[C@@H]2/C=C/c2ccccc2)cc1 (mixture of isomers) | 0.149 | – | –
2 | O=C(NCCCCCCNc1ccnc2cc(Cl)ccc12)N[C@H]1C(=O)N(C2CCCCC2)[C@H]1/C=C/c1ccccc1 (racemic) | 0.0521 | – | –
3 | Cc1ccc(N2C(=O)[C@H](NC(=O)NCCNc3ccnc4cc(Cl)ccc34)[C@@H]2/C=C/c2ccccc2)cc1 (mixture of isomers) | 0.0531 | – | –
4 | O=C(NCCCCCCNc1ccnc2cc(Cl)ccc12)C(=O)N[C@@H]1C(=O)N(C2CCCCC2)[C@@H]1/C=C/c1ccccc1 (racemic) | 0.035 | 90 | –
5 | O=C(NCCCNc1ccnc2cc(Cl)ccc12)C(=O)N[C@@H]1C(=O)N(C2CCCCC2)[C@@H]1/C=C/c1ccccc1 (mixture of isomers) | 0.121 | – | –
6 | O=C(NCCCNc1ccnc2cc(Cl)ccc12)N[C@H]1C(=O)N(C2CCCCC2)[C@H]1/C=C/c1ccccc1 (relative stereo) | 0.073 | – | –
7 | O=C(NCCCCNc1ccnc2cc(Cl)ccc12)N[C@H]1C(=O)N(C2CCCCC2)[C@H]1/C=C/c1ccccc1 (relative stereo) | 0.193 | – | –
8 | CCNCc1cc(Nc2ccnc3cc(Cl)ccc23)ccc1O [DESETHYL AMODIAQUINE] | 0.401 | – | –
9 | CCOC(=O)N[C@@H]1C(=O)N(C2CCCCC2)[C@@H]1/C=C/c1ccccc1 (racemic) | > 1 | – | –
10 | O=C(NCCNc1ccnc2cc(Cl)ccc12)N[C@H]1C(=O)N(C2CCCCC2)[C@H]1/C=C/c1ccccc1 (mixture of isomers) | 0.157 | – | –
11 | Cc1ccc(N2C(=O)[C@H](NC(=O)NCCCNc3ccnc4cc(Cl)ccc34)[C@@H]2/C=C/c2ccccc2)cc1 (racemic) | 0.051 | – | –
12 | Cc1ccc(N2C(=O)[C@H](NC(=O)NCCCCCCNc3ccnc4cc(Cl)ccc34)[C@@H]2/C=C/c2ccccc2)cc1 (racemic) | 0.0424 | 90 | –
13 | O=C(NCCNc1ccnc2cc(Cl)ccc12)C(=O)N[C@@H]1C(=O)N(C2CCCCC2)[C@@H]1/C=C/c1ccccc1 (racemic) | 0.0613 | – | –
14 | COc1cccc2c1C(=O)c1c(O)c3c(c(O)c1C2=O)C[C@@](O)(C(=O)CO)C[C@@H]3O[C@H]1C[C@H](N)[C@H](O)[C@H](C)O1 [DOXORUBICIN] | – | – | 62
15 | CCOC(=O)C(=O)N[C@@H]1C(=O)N(C2CCCCC2)[C@@H]1/C=C/c1ccccc1 (racemic) | > 1 | – | –
16 | O=C(NCCCCNc1ccnc2cc(Cl)ccc12)C(=O)N[C@@H]1C(=O)N(C2CCCCC2)[C@@H]1/C=C/c1ccccc1 (mixture of isomers) | 0.0686 | – | –
17 | CCOC(=O)N[C@@H]1C(=O)N(c2ccc(C)cc2)[C@@H]1/C=C/c1ccccc1 (racemic) | > 1 | – | –
18 | Cc1ccc(N2C(=O)[C@@H](NC(=O)C(=O)NCCCNc3ccnc4cc(Cl)ccc34)[C@H]2/C=C/c2ccccc2)cc1 (racemic) | 0.0887 | – | –
19 | CCOC(=O)C(=O)N[C@@H]1C(=O)N(c2ccc(Cl)cc2)[C@@H]1/C=C/c1ccccc1 (relative stereo) | > 1 | – | –
20 | Cc1ccc(N2C(=O)[C@@H](NC(=O)C(=O)NCCNc3ccnc4cc(Cl)ccc34)[C@H]2/C=C/c2ccccc2)cc1 (racemic) | 0.0448 | – | –
21 | O=C(NCCCCCCNc1ccnc2cc(Cl)ccc12)C(=O)N[C@@H]1C(=O)N(c2ccc(Cl)cc2)[C@@H]1/C=C/c1ccccc1 (racemic) | 0.0508 | – | –
22 | C[C@@H]1CC[C@H]2[C@@H](C)C(=O)O[C@@H]3O[C@@]4(C)CC[C@@H]1[C@]32OO4 [ARTEMISININ] | 0.0106 | – | –
23 | CCOC(=O)C(=O)N[C@@H]1C(=O)N(c2ccc(C)cc2)[C@@H]1/C=C/c1ccccc1 (racemic) | > 1 | – | –
24 | O=C(NCCCCNc1ccnc2cc(Cl)ccc12)C(=O)N[C@@H]1C(=O)N(c2ccc(Cl)cc2)[C@@H]1/C=C/c1ccccc1 (racemic) | 0.0822 | – | –
